Where two headings read alike, the source gives them in different places.
Experiments:
TcRPI-B [1] = molecular target: T1, TcRPI-B (Trypanosoma cruzi, UniProt A0ACM8Q8A9); assay: TcRPI-B coupled enzyme assay following consumption of NADH at 340 nm; type: biochemical; conditions: for activity at 200 µM: compound 0.2 mM; for activity at 200 µM / activity at 500 µM / activity at 1000 µM / activity at 2000 µM: 2 mM R5P, mean of three determinations ± SD, read-out: percentage of TcRPI-B activity; for activity at 500 µM: compound 0.5 mM; for activity at 1000 µM: compound 1.0 mM; for activity at 2000 µM: compound 2.0 mM
Method: (§1) The activity of TcRPI-B was determined by a coupled enzyme assay following consumption of NADH at 340 nm, at 30° C., in a Beckman Coulter DU®600 Spectrophotometer, using a mixture containing 50 mM triethanolamine (pH 7.5), 5 mM MgCl2, […], 0.025 mM thiamine pyrophosphate, 1 unit of transketolase (EC 2.2.1.1), 1 unit of ribulose 5-phosphate 3-epimerase (EC 5.1.3.1), 20 units of triosephosphate isomerase (EC 5.3.1.1), 2 units of α-glycerophosphate dehydrogenase (EC 1.1.1.8), and 2 mM R5P for the screening of the inhibitors. For the determination of Ki, the concentration of R5P was 0.4 mM, 0.8 mM, and 2.0 mM.
(§2) The activity of TcRPE-1 was determined in the same reaction mixture, without TcRPI-B, and replacing R5P by 4 mM ribulose 5-phosphate (Ru5P). […] The reaction was started with the addition of TcRPI-B and further incubated for 10 minutes in the same tube, to surpass the lag observed with the recombinant RPI, and then the mixture was transferred to the spectrophotometer cuvette and the linear part of the progress curve was registered for 15 minutes. The screening of the inhibitors was performed using them at 0, 0.2, 0.5, 1.0 and 2.0 mM for both enzymes, TcRPI-B and TcRPE-1, and for the Ki determination for compound B (FIG. 4) the concentrations used were: 0, 10, 20, 40, 60 and 80 μM, at each R5P concentration used.

TcRPE-1 = TcRPE-1 coupled enzyme assay (same reaction mixture, without TcRPI-B, 4 mM Ru5P); type: biochemical, Trypanosoma cruzi; conditions: mean of three determinations ± SD
Method: as §1, §2

TcRPI-B [2] = molecular target: T1, TcRPI-B; conditions: known TcRPI-B inhibitors, FIG. 2; cited from earlier work
TcRPI-B [3] = molecular target: T1, TcRPI-B; assay: Trypsin digestion LC/MSMS of TcRPI-B exposed to Compound B; type: binding; conditions: 500 μM compound, 100 μM TcRPI-B, 4° C., 30 minutes
Method: Sample preparation: Purified TcRPI-B was buffer exchanged into 50 mM ammonium bicarbonate (pH 8.0) by using a PD-10 desalting column (GE Life Sciences). The concentration of TcRPI-B was adjusted to 100 μM for the monomer [TcRPI-B: M.W.=19,816 g/mol; ε280=5,120 M^−1 cm^−1] using an Agilent 8453 UV-Visible spectrophotometer. A protein test sample was incubated with compound B (FIG. 2) at a final concentration of 500 μM at 4° C. for 30 minutes and a control sample was prepared that was in the absence of compound B. Samples to be analyzed by LC/MSMS were first quantitated for protein content using a Pierce™ bicinchoninic acid (BCA) Protein Assay Kit and normalized to 50 μg of protein by diluting the appropriate amount of sample in 50 mM ammonium bicarbonate. Normalized samples were digested with trypsin at a 50:1 protein:trypsin concentration. Samples were incubated for 4 hours and then aliquoted for LC-MS analysis.
Nanoflow LC: Chromatographic separation was achieved using a Thermo Scientific™ EASY-nLC™ 1200 system (Bremen, Germany). Pico-frit columns were purchased from New Objective (Woburn, Mass.) and bomb packed to a length of 20-30 cm with reverse phase ReproSil-Pur® 120 Å C18-AQ 3 μm particles (Dr. Maisch, Germany). […]

| activity at 200 µM (TcRPI-B [1]) [%] | activity at 500 µM (TcRPI-B [1]) [%] | activity at 1000 µM (TcRPI-B [1]) [%] | activity at 2000 µM (TcRPI-B [1]) [%] | percentage of TcRPE-1 activity (TcRPE-1; compound 0.2 mM) [%] | percentage of TcRPE-1 activity (TcRPE-1; compound 0.5 mM) [%] | percentage of TcRPE-1 activity (TcRPE-1; compound 1.0 mM) [%] | percentage of TcRPE-1 activity (TcRPE-1; compound 2.0 mM) [%] | Ki (TcRPI-B [1]; Dixon plots, R5P 0.4, 0.8 and 2 mM, inhibitor 0-80 μM, mean of four independent experiments, read-out: inhibition constant (Ki)) [µM] | type of inhibition (TcRPI-B [1]; plot of [R5P]/V vs. [B], three lines parallel) | covalent labeling of TcRPI-B peptide V66-R86 (TcRPI-B [3]) | Compound | Ki (TcRPI-B [2]) [µM] |
| --- | --- | --- | --- | --- | --- | --- | --- | --- | --- | --- | --- | --- |
| 78.5 ± 4.8 | 62.7 ± 5.9 | 41.3 ± 2.7 | 18.3 ± 2.5 | 91.1 ± 5.1 | 85.8 ± 4.4 | 77.3 ± 7.5 | 65.1 ± 5.2 | – | – | – | O=C(CBr)NCCOP(=O)(O)O [Compound C, 2-(2-bromoacetamido)ethyl dihydrogen phosphate] | – |
| – | – | – | – | – | – | – | – | – | – | – | O=C[C@H](O)[C@H](O)[C@H](O)[C@H](O)COP(=O)(O)O [AlI6P] | 15000 |
| – | – | – | – | – | – | – | – | – | – | – | O=C(NO)[C@H](O)[C@H](O)COP(=O)(O)O [Compound 4PEH, 4-phospho-D-erythronohydroxamic acid] | 1200 |
| 107 ± 9 | 105 ± 7 | 98.5 ± 2.1 | 83.7 ± 8.9 | 100 ± 6 | 103 ± 5 | 95.5 ± 7.9 | 82.6 ± 12 | – | – | – | O=C(CCl)NCCOP(=O)(O)O [Compound D, 2-(2-chloroacetamido)ethyl dihydrogen phosphate] | – |
| 25.2 ± 3.5 | 7.5 ± 3.9 | 1.2 ± 0.3 | 0 | 89.5 ± 4 | 89.5 ± 4 | 103 ± 5 | 57.4 ± 0.4 | 5.5 ± 0.1 | competitive inhibition | bound irreversibly to C69 | O=C(CI)NCCOP(=O)(O)O [Compound B, 2-(2-iodoacetamido)ethyl dihydrogen phosphate] | – |
| 98.1 ± 3.2 | 97.4 ± 0.5 | 95.3 ± 4.2 | 89.2 ± 3.5 | 100 ± 5 | 91.9 ± 4.3 | 87.4 ± 3.1 | 85.9 ± 4.4 | – | – | – | O=C(Cc1ccccc1)NCCOP(=O)(O)O [Compound A, 2-(2-phenylacetamido)ethyl dihydrogen phosphate] | – |

| Compound | activity at 200 µM (TcRPI-B [1]) [%] | activity at 500 µM (TcRPI-B [1]) [%] | activity at 1000 µM (TcRPI-B [1]) [%] | activity at 2000 µM (TcRPI-B [1]) [%] | percentage of TcRPE-1 activity (TcRPE-1; compound 0.2 mM) [%] | percentage of TcRPE-1 activity (TcRPE-1; compound 0.5 mM) [%] | percentage of TcRPE-1 activity (TcRPE-1; compound 1.0 mM) [%] | percentage of TcRPE-1 activity (TcRPE-1; compound 2.0 mM) [%] | Ki (TcRPI-B [1]; Dixon plots, R5P 0.4, 0.8 and 2 mM, inhibitor 0-80 μM, mean of four independent experiments, read-out: inhibition constant (Ki)) [µM] | type of inhibition (TcRPI-B [1]; plot of [R5P]/V vs. [B], three lines parallel) | covalent labeling of TcRPI-B peptide V66-R86 (TcRPI-B [3]) | Ki (TcRPI-B [2]) [µM] |
| --- | --- | --- | --- | --- | --- | --- | --- | --- | --- | --- | --- | --- |
| O=C(CF)NCCOP(=O)(O)O [Compound E, 2-(2-fluoroacetamido)ethyl dihydrogen phosphate] | – | – | – | – | 111 ± 10 | 103 ± 7 | 93.2 ± 11.1 | 83.5 ± 9.7 | – | – | – | – |
